Experimental data: ChEMBL document CHEMBL1201862, “PubChem BioAssay data set” (2004)
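Briefly, cells in 96-well plates were exposed to five compound concentrations for 48 h, and endpoints were estimated by linear interpolation. GI50: concentration for 50% inhibition of growth.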 Active and inactive are the calls of the source. No stated cut-off is given here; in the data, active = GI50 up to about 1.1 µM and inactive = higher.

Columns and labels:
Assay in all cases: inhibition of tumour cell growth, NCI panel, 48 h
MOLT-4 = system: MOLT-4
PC-3 = system: PC-3
SF-268 = system: SF-268
IGROV-1 = system: IGROV-1
BT-549 = system: BT-549
NCI-H226 = system: NCI-H226
RPMI-8226 = system: RPMI-8226
SK-MEL-5 = system: SK-MEL-5
RXF 393 = system: RXF 393
786-0 = system: 786-0
EKVX = system: EKVX
HCC 2998 = system: HCC 2998
SK-MEL-2 = system: SK-MEL-2
SNB-19 = system: SNB-19
HT-29 = system: HT-29
T47D = system: T47D
SF-539 = system: SF-539
M14 = system: M14
NCI/ADR-RES = system: NCI/ADR-RES

| SMILES | GI50 (MOLT-4) | GI50 (PC-3) | GI50 (SF-268) | GI50 (IGROV-1) | GI50 (BT-549) | GI50 (NCI-H226) | GI50 (RPMI-8226) | GI50 (SK-MEL-5) | GI50 (RXF 393) | GI50 (786-0) | GI50 (EKVX) | GI50 (HCC 2998) | GI50 (SK-MEL-2) | GI50 (SNB-19) | GI50 (HT-29) | GI50 (T47D) | GI50 (SF-539) | GI50 (M14) | GI50 (NCI/ADR-RES) |
| --- | --- | --- | --- | --- | --- | --- | --- | --- | --- | --- | --- | --- | --- | --- | --- | --- | --- | --- | --- |
| S=c1nc(Nc2ccc(Cl)cc2)c2c3c(sc2[nH]1)CCCC3 | 64.7 µM (inactive) | 57.7 µM (inactive) | > 100 µM (inactive) | > 100 µM (inactive) | > 100 µM (inactive) | > 100 µM (inactive) | 24.4 µM (inactive) | > 100 µM (inactive) | > 100 µM (inactive) | > 100 µM (inactive) | > 100 µM (inactive) | 43.4 µM (inactive) | > 100 µM (inactive) | > 100 µM (inactive) | > 100 µM (inactive) | – | – | – | – |
| Cc1cccc(Cl)c1NC(=O)/C=C/c1ccccc1 | > 100 µM (inactive) | > 100 µM (inactive) | 67 µM (inactive) | 97.5 µM (inactive) | > 100 µM (inactive) | > 100 µM (inactive) | 32.3 µM (inactive) | 95.5 µM (inactive) | – | 36.3 µM (inactive) | 49.2 µM (inactive) | 74.6 µM (inactive) | > 100 µM (inactive) | > 100 µM (inactive) | 59.3 µM (inactive) | 36.7 µM (inactive) | 44.8 µM (inactive) | > 100 µM (inactive) | – |
| COc1cc(C2SC(=N)Nc3c2c(C)nn3C(=O)Cc2ccccc2)ccc1O (stereo not drawn) | > 100 µM (inactive) | > 100 µM (inactive) | > 100 µM (inactive) | > 100 µM (inactive) | > 100 µM (inactive) | > 100 µM (inactive) | > 100 µM (inactive) | > 100 µM (inactive) | – | > 100 µM (inactive) | > 100 µM (inactive) | > 100 µM (inactive) | – | > 100 µM (inactive) | > 100 µM (inactive) | > 100 µM (inactive) | > 100 µM (inactive) | > 100 µM (inactive) | – |
| CCNCCNC(=O)c1ccc(I)cc1 | > 100 µM (inactive) | > 100 µM (inactive) | > 100 µM (inactive) | > 100 µM (inactive) | > 100 µM (inactive) | 6.22 µM (inactive) | > 100 µM (inactive) | > 100 µM (inactive) | > 100 µM (inactive) | > 100 µM (inactive) | > 100 µM (inactive) | > 100 µM (inactive) | – | > 100 µM (inactive) | > 100 µM (inactive) | – | > 100 µM (inactive) | > 100 µM (inactive) | > 100 µM (inactive) |
| CCOC(=O)C(=O)Nc1c(C)cccc1C(C)(C)C | > 100 µM (inactive) | – | > 100 µM (inactive) | > 100 µM (inactive) | – | > 100 µM (inactive) | > 100 µM (inactive) | > 100 µM (inactive) | > 100 µM (inactive) | > 100 µM (inactive) | > 100 µM (inactive) | > 100 µM (inactive) | > 100 µM (inactive) | > 100 µM (inactive) | > 100 µM (inactive) | – | > 100 µM (inactive) | > 100 µM (inactive) | – |
| CCOC(=O)C(C(=O)OCC)C(NC(=O)Nc1cc(C(F)(F)F)ccc1OC)(C(F)(F)F)C(F)(F)F | 24 µM (inactive) | 39.6 µM (inactive) | 36.4 µM (inactive) | 25.4 µM (inactive) | – | 25.5 µM (inactive) | 18.8 µM (inactive) | 19.4 µM (inactive) | 30.3 µM (inactive) | 24.6 µM (inactive) | 70.3 µM (inactive) | 25.6 µM (inactive) | – | 39.9 µM (inactive) | 35.8 µM (inactive) | 30.4 µM (inactive) | 19.5 µM (inactive) | 21.1 µM (inactive) | 28.6 µM (inactive) |
| CCOC(=O)C(NC(=O)CC)(Nc1ccc(S(=O)(=O)Nc2ncccn2)cc1)C(F)(F)F (stereo not drawn) | > 100 µM (inactive) | > 100 µM (inactive) | > 100 µM (inactive) | > 100 µM (inactive) | – | > 100 µM (inactive) | > 100 µM (inactive) | > 100 µM (inactive) | > 100 µM (inactive) | > 100 µM (inactive) | > 100 µM (inactive) | > 100 µM (inactive) | – | > 100 µM (inactive) | > 100 µM (inactive) | > 100 µM (inactive) | > 100 µM (inactive) | > 100 µM (inactive) | > 100 µM (inactive) |
| COc1ccc(OC)c(N(CN2C(=O)CCC2C(=O)O)C(C)=O)c1 (stereo not drawn) | > 100 µM (inactive) | > 100 µM (inactive) | > 100 µM (inactive) | > 100 µM (inactive) | – | > 100 µM (inactive) | > 100 µM (inactive) | > 100 µM (inactive) | – | > 100 µM (inactive) | > 100 µM (inactive) | – | > 100 µM (inactive) | > 100 µM (inactive) | > 100 µM (inactive) | > 100 µM (inactive) | > 100 µM (inactive) | > 100 µM (inactive) | > 100 µM (inactive) |
| COC[C@@H](/N=C/c1ccc([N+](=O)[O-])cc1)C(C)C | 42.2 µM (inactive) | > 100 µM (inactive) | > 100 µM (inactive) | > 100 µM (inactive) | – | – | 25.2 µM (inactive) | > 10 µM (inactive) | > 100 µM (inactive) | > 100 µM (inactive) | > 100 µM (inactive) | – | > 100 µM (inactive) | > 100 µM (inactive) | > 100 µM (inactive) | – | – | 70.1 µM (inactive) | > 100 µM (inactive) |
| COc1cc(OC(C)=O)cc2c(OC(C)=O)ccc(OC(C)=O)c12 | > 100 µM (inactive) | – | > 100 µM (inactive) | > 100 µM (inactive) | – | – | > 100 µM (inactive) | > 100 µM (inactive) | > 100 µM (inactive) | > 100 µM (inactive) | > 100 µM (inactive) | – | > 100 µM (inactive) | > 100 µM (inactive) | > 100 µM (inactive) | – | – | > 100 µM (inactive) | – |
| O=c1c2ccccc2nc(N/N=C/c2ccccc2O)n1-c1ccccc1 | – | 3.57 µM (inactive) | 2.13 µM (inactive) | 5.6 µM (inactive) | 41.5 µM (inactive) | 5.41 µM (inactive) | – | 4.56 µM (inactive) | 17.1 µM (inactive) | 1.53 µM (inactive) | – | 5.27 µM (inactive) | 7.67 µM (inactive) | 56.5 µM (inactive) | 4.55 µM (inactive) | – | 5.31 µM (inactive) | 4.52 µM (inactive) | 2.27 µM (inactive) |
| [O-][N+]1=C(c2ccccc2)/C(=C2/C(c3ccccc3)=[N+]([O-])c3ccccc32)Cc2ccccc21 | 22.8 µM (inactive) | 12.9 µM (inactive) | – | 16.4 µM (inactive) | – | 22.5 µM (inactive) | 21.1 µM (inactive) | 17.6 µM (inactive) | 33.1 µM (inactive) | 15.3 µM (inactive) | 20.4 µM (inactive) | 13.9 µM (inactive) | 16.1 µM (inactive) | 19 µM (inactive) | 19.4 µM (inactive) | 16.3 µM (inactive) | 24.2 µM (inactive) | 19.6 µM (inactive) | 15.7 µM (inactive) |
| O=C(C(=O)c1cc(-c2ccccc2)nc2ccc3ccccc3c12)c1ccccc1 | 22.1 µM (inactive) | 43.2 µM (inactive) | 20.8 µM (inactive) | 37.9 µM (inactive) | 65.8 µM (inactive) | 72.6 µM (inactive) | > 100 µM (inactive) | 60.1 µM (inactive) | 39 µM (inactive) | 33.5 µM (inactive) | 76.9 µM (inactive) | > 100 µM (inactive) | – | 35.9 µM (inactive) | > 100 µM (inactive) | – | 32.1 µM (inactive) | 67.5 µM (inactive) | 97.7 µM (inactive) |
| CC1=NN(C(=O)CSc2nnc(SCC(=O)N3N=C(C)CC3(O)c3ccccc3)s2)C(O)(c2ccccc2)C1 (stereo not drawn) | 32.3 µM (inactive) | 34.5 µM (inactive) | 12.8 µM (inactive) | 25.1 µM (inactive) | 15.5 µM (inactive) | – | 15.5 µM (inactive) | 28.2 µM (inactive) | 24.9 µM (inactive) | 43.3 µM (inactive) | 27 µM (inactive) | > 100 µM (inactive) | 29.2 µM (inactive) | 60.4 µM (inactive) | – | – | – | 16.1 µM (inactive) | 27.9 µM (inactive) |
| CCOC(=O)c1ccc(N[C@@H]2c3cc4c(cc3C(C3=CC(=O)C(=O)C(OC)=C3)[C@H]3C(=O)OCC32)OCO4)cc1 (stereo partly drawn) | 0.215 µM (active) | – | 1.77 µM (inactive) | 5.78 µM (inactive) | – | – | 1.06 µM (active) | 2.72 µM (inactive) | 2.84 µM (inactive) | 1.6 µM (inactive) | 3.73 µM (inactive) | 4.6 µM (inactive) | 2.82 µM (inactive) | 2.49 µM (inactive) | 4.49 µM (inactive) | – | 1.29 µM (inactive) | 2.51 µM (inactive) | – |
| Cc1cccc(C)c1NC(=O)/C=C/c1ccccc1 | > 100 µM (inactive) | > 100 µM (inactive) | > 100 µM (inactive) | – | > 100 µM (inactive) | 20.3 µM (inactive) | > 100 µM (inactive) | > 100 µM (inactive) | – | > 100 µM (inactive) | 67 µM (inactive) | > 100 µM (inactive) | > 100 µM (inactive) | > 100 µM (inactive) | > 100 µM (inactive) | > 100 µM (inactive) | > 100 µM (inactive) | > 100 µM (inactive) | – |
| CCOC(=O)C1=C(C)N(Cc2ccccc2)C2(O)C=CC(=O)C3C(=O)N(c4ccccc4)C(=O)C132 (stereo not drawn) | 2.11 µM (inactive) | 1.92 µM (inactive) | 2.54 µM (inactive) | 2 µM (inactive) | – | 2.45 µM (inactive) | 1.03 µM (active) | 3.57 µM (inactive) | 1.35 µM (inactive) | 1.59 µM (inactive) | 10.3 µM (inactive) | 1.67 µM (inactive) | 1.98 µM (inactive) | 7.52 µM (inactive) | 1.7 µM (inactive) | 2.42 µM (inactive) | 1.6 µM (inactive) | 1.81 µM (inactive) | 2.75 µM (inactive) |
